The values below come from patent US7560482B2, “Inhibitors of plasmepsins” (The Johns Hopkins University, priority 2001, dated 2009).

Assay [1] deals with chloroquine-sensitive Plasmodium falciparum (NF54). The assay can be described thus: malaria-infected human red blood cell assay, [3H]hypoxanthine incorporation. The format is cell-based. Particulars: P. falciparum NF54, 48 h + 20 h incubation; read-out: IC50, killing of malaria parasite in infected red blood cell assay. The procedure: The ability of some KNI compounds to kill the malaria parasite was evaluated by measuring the IC50 in a malaria-infected human red blood cell assay. Activity was determined by measuring the incorporation of [^3H]hypoxanthine. Briefly, chloroquine-sensitive Plasmodium falciparum (NF54) were maintained in a 2.4% suspension of type O^+ human erythrocytes in RPMI 1640, supplemented with 25 mM HEPES, 27 mM NaHCO3, and 10% heat-inactivated human type O^+ serum, under 3% O2, 4% CO2, and 93% N2. 20 mM stock solutions of KNI-764 and KNI-727 and KNI-840 were prepared in DMSODMSO solutions were diluted 500 fold in medium, serially diluted in 0.2% DMSO in medium, then 100 μl aliquots were pipetted into microtiter plate wells. Provisional EC50 values were obtained in a survey of ten 5-fold dilutions yielding final concentrations (in quadruplicate) of 0.00001-20 μM. Plates included 8 wells of no drug controls (4 with and 4 without DMSO) and 4 wells in uninfected erythrocytes. […] The filters were washed four times with 3 ml water per sample spot, dried under a heat lamp, and counted in scintillation cocktail. Decays per minute values were downloaded and analyzed in order to yield the mean and standard deviation at each drug concentration. […]

Assay [2] has as its target T1, human Cathepsin D (Homo sapiens, UniProt P07339).
T1 construct: purchased
In words: Cathepsin D inhibition assay, hydrolysis of chromogenic substrate. The format is biochemical. The procedure: (§1) The specific activity of plasmepsin II from Plasmodium falciparum (Plm II) cloned in and purified from Escherchia coli and commercially available human Cathepsin D were measured by following the hydrolysis of the chromogenic substrate Ala-Leu-Glu-Arg-Thr-nPhe-Phe-Ser-Phe-Pro-Thr-OH (California Peptide Research Inc., Napa, Calif.). The decrease in absorbance upon hydrolysis is monitored at 300 nm. Typical Plasmepsin II preparations hydrolyze chromogenic substrate at 4-5 s^−1 at 37° C. The inhibition assays were performed at 25° C. in 10 mM sodium formate, 2% DMSO, pH 4.0. These pH conditions mimic the conditions in the food vacuole of the parasite. […] Inhibition constants (Ki) for the inhibitors are obtained at the desired temperature and solvent conditions by measuring the rate of substrate hydrolysis at increasing amounts of inhibitors. Exemplary results from three compounds (KNI-10033, KNI-10030 and KNI-10006) are shown in FIG. 7A-C, and the results obtained with all KNI compounds tested are given in Table 1.

For assay [3], the target named is T2, plasmepsin II from Plasmodium falciparum (Plm II) (Plasmodium falciparum, UniProt P46925).
T2 construct: made in house; host or cells: Escherichia coli
T2 sequence (P46925 125-453): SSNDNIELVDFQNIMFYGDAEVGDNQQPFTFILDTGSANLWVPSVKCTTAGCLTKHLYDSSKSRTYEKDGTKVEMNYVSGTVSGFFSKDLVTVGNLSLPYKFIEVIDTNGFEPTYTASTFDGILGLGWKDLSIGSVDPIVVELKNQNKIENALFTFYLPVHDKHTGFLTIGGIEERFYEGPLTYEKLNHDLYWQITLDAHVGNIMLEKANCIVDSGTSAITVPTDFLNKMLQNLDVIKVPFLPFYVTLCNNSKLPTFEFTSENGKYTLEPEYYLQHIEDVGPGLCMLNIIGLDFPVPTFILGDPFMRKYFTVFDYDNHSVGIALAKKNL
The assay can be described thus: Plasmepsin II inhibition assay, hydrolysis of chromogenic substrate. The settings on record: for Discrimination Factor: Fold Selectivity for Plasmepsin II over Cathepsin D: ratio of the Ki for Cathepsin D to the Ki for Plasmepsin II. The assay is classed as biochemical. As for the experimental part: FIG. 7A-C. Inhibition of Plasmepsin II from Plasmodium falciparum by KNI-10033, KNI-10030 and KNI-10006 at 20° C. in 10 mM sodium citrate, 100 mM NaCl, 2% DMSO, pH 4.0. The inhibition constants are 3 nM, 11 nM and 0.5 rLM respectively.
as §1

The mark [4] stands for this setting: 25° C., 10 mM sodium formate, 2% DMSO, pH 4.0, fit to competitive inhibition, read-out: Ki CatD.
The mark [5] stands for this setting: Table 2, read-out: Ki Cathepsin D.
Where [6] appears, read: 25° C., 10 mM sodium formate, 2% DMSO, pH 4.0, fit to competitive inhibition, read-out: Ki Plm II.
The mark [7] stands for this setting: Table 2, read-out: Ki Plasmepsin II.

Usually IC50 stands for the concentration needed to halve the response being measured. A word on the Ki: it is a measure of affinity in units of concentration, obtained from inhibition or displacement.

Like-named read-outs stand apart in the source and are kept apart here.

T1 sequence (P07339 65-412): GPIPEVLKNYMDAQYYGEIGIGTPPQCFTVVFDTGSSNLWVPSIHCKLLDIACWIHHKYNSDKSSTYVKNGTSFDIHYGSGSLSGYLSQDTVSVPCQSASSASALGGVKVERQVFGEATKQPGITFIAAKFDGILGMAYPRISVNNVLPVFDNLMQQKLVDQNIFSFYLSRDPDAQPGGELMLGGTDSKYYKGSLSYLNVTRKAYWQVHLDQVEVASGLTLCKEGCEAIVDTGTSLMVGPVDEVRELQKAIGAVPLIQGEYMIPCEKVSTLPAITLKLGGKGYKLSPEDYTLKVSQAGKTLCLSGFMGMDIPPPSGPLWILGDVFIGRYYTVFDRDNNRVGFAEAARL

`Cc1ccccc1CNC(=O)[C@H]1N(C(=O)[C@@H](O)[C@H](Cc2ccccc2)NC(=O)c2cccc(O)c2C)CSC1(C)C` [KNI-764]: in assay [1], the IC50 is 10 µM. In addition, the Ki in assay [2] (setting [4]) came out at 0.201 ± 0.02 µM; in assay [2] (setting [5]), 0.201 µM; in assay [3] (setting [6]), 0.03 ± 0.009 µM; in assay [3] (setting [7]), 0.03 µM. The “inhibition constants against Plasmepsin II, in words” value (“inhibition constants” below) in assay [3] was “nanomolar and subnanomolar range”. In assay [3], the “Discrimination Factor: Fold Selectivity for Plasmepsin II over Cathepsin D” value (shortened to “Discrimination Factor: Fold Selectivity”) is listed as about 7.

For `Cc1ccccc1CNC(=O)[C@H]1N(C(=O)[C@@H](O)[C@H](Cc2ccccc2)NC(=O)COc2c(C)cccc2C)CSC1(C)C` [KNI-840], the IC50 in assay [1] stood at 10 µM. Also, the inhibitory constant (Ki) is 0.08 ± 0.09 µM in assay [2] (setting [4]); 0.08 µM in assay [2] (setting [5]); 0.02 ± 0.01 µM in assay [3] (setting [6]); 0.02 µM in assay [3] (setting [7]); about 0.02 µM in assay [3] (read-out: Ki (Plasmepsin II), unit inferred). Also, the “inhibition constants” value in assay [3] is “nanomolar and subnanomolar range”. Further, the “discrimination factor / Cathepsin D selectivity” value in assay [3] (Plasmepsin II versus Cathepsin D, fold) turned out to be 4. Further, the “Discrimination Factor: Fold Selectivity” value in assay [3] was 4.

With `Cc1cccc(C)c1OCC(=O)N[C@@H](Cc1ccccc1)[C@H](O)C(=O)N1CSC(C)(C)[C@H]1C(=O)N[C@H](CO)c1ccccc1` [KNI-10043], the Ki in assay [2] (setting [4]) was 0.053 ± 0.008 µM; in assay [2] (setting [5]) it was 0.053 µM; in assay [3] (setting [6]), 0.022 ± 0.005 µM; in assay [3] (setting [7]), 0.022 µM. Further, the “inhibition constants” value in assay [3] was “nanomolar and subnanomolar range”. In addition, the “Discrimination Factor: Fold Selectivity” value in assay [3] stood at 2.4.

For `Cc1cccc(C)c1OCC(=O)NC(Cc1ccccc1)C(O)C(=O)N1CSC(C)(C)C1C(=O)NC(CO)c1ccccc1` (stereo not shown) [KNI-10044], the Ki in assay [2] (setting [4]) stood at 1.04 ± 0.178 µM; in assay [3] (setting [6]), 0.532 ± 0.07 µM.

With `CC(C)(C)NC(=O)[C@H]1N(C(=O)[C@@H](O)[C@H](Cc2ccccc2)NC(=O)COc2cccc(Cl)c2)CSC1(C)C` [KNI-10045], the figures for the inhibitory constant (Ki) in assay [2] (setting [4]) and in assay [3] (setting [6]) were 6.16 ± 0.671 µM and 1.08 ± 0.165 µM, respectively.

In the case of `Cc1cccc(C)c1OCC(=O)N[C@@H](Cc1ccccc1)[C@H](O)C(=O)N1CSC(C)(C)[C@H]1C(=O)NCc1ccccc1` [KNI-10046], the Ki in assay [2] (setting [4]) turned out to be 0.26 ± 0.023 µM; in assay [3] (setting [6]) it was 0.096 ± 0.02 µM.

In the case of `Cc1cccc(C)c1OCC(=O)N[C@@H](Cc1ccccc1)[C@H](O)C(=O)N1CSC(C)(C)[C@H]1C(=O)NCc1ccccc1O` [KNI-10047], the figures for the inhibition constant Ki in assay [2] (setting [4]) and in assay [3] (setting [6]) were 0.252 ± 0.053 µM and 0.055 ± 0.007 µM, respectively.

On to `Cc1cccc(C)c1OCC(=O)N[C@@H](Cc1ccccc1)[C@H](O)C(=O)N1CSC(C)(C)[C@H]1C(=O)NCc1cccc(O)c1` [KNI-10048], for which the Ki in assay [2] (setting [4]) turned out to be 0.771 ± 0.097 µM; in assay [3] (setting [6]), 0.099 ± 0.014 µM.

In the case of `CC(C)C(NC(=O)OCc1ccccc1)C(=O)NC(Cc1ccccc1)C(O)C(=O)N1CSC(C)(C)C1C(=O)NC(C)(C)C` (stereo not shown) [KNI-10049], the results for the Ki in assay [2] (setting [4]) and in assay [3] (setting [6]) were 2.58 ± 0.682 µM and 1.51 ± 0.125 µM, respectively.

With `CC(C)(C)NC(=O)[C@H]1N(C(=O)[C@@H](O)[C@H](Cc2ccccc2)NC(=O)[C@H](Cc2ccccc2)NC(=O)COc2cccc3cnccc23)CSC1(C)C` [KNI-10051], the Ki in assay [2] (setting [4]) worked out at 6.51 ± 1.22 µM; in assay [3] (setting [6]) it was 0.186 ± 0.014 µM.

As to `Cc1ccc(CNC(=O)[C@H]2N(C(=O)[C@@H](O)[C@H](Cc3ccccc3)NC(=O)COc3c(C)cccc3C)CSC2(C)C)cc1` [KNI-10052], the figures for the inhibition constant Ki in assay [2] (setting [4]) and in assay [3] (setting [6]) were 1.32 ± 0.152 µM and 0.572 ± 0.054 µM, respectively.

Turning to `Cc1cccc(CNC(=O)[C@H]2N(C(=O)[C@@H](O)[C@H](Cc3ccccc3)NC(=O)COc3c(C)cccc3C)CSC2(C)C)c1` [KNI-10053], the Ki in assay [2] (setting [4]) stood at 0.36 ± 0.054 µM; in assay [2] (setting [5]) it was 0.36 µM; in assay [3] (setting [6]), 0.041 ± 0.007 µM; in assay [3] (setting [7]) it was 0.041 µM. In assay [3], the “inhibition constants” value was “nanomolar and subnanomolar range”. Also, the “Discrimination Factor: Fold Selectivity” value in assay [3] is listed as about 9.

For `Cc1cccc(C)c1OCC(=O)NC(Cc1ccccc1)C(O)C(=O)N1CSC(C)(C)C1C(=O)NCc1ccc(O)cc1` (stereo not shown) [KNI-10054], the Ki is 1.64 ± 0.146 µM in assay [2] (setting [4]) and 0.273 ± 0.041 µM in assay [3] (setting [6]).

For the compound `CC(C)(C)NC(=O)C1N(C(=O)C(O)C(Cc2ccccc2)NC(=O)C(CCC(N)=O)NC(=O)COc2cccc3cnccc23)CSC1(C)C` (stereo not shown) [KNI-10055], the Ki in assay [2] (setting [4]) amounted to 6.28 ± 0.981 µM; in assay [3] (setting [6]) it was 1.17 ± 0.071 µM.

Turning to `CC(C)C(NC(=O)COc1ccccc1)C(=O)NC(Cc1ccccc1)C(O)C(=O)N1CSC(C)(C)C1C(=O)NC(C)(C)C` (stereo not shown) [KNI-10056], the inhibition constant (Ki) in assay [2] (setting [4]) came out at 1.28 ± 0.161 µM; in assay [3] (setting [6]) it was 1.77 ± 0.154 µM.

Consider `CCSC[C@H](NC(=O)COc1cccc2cnccc12)C(=O)N[C@@H](Cc1ccccc1)[C@H](O)C(=O)N1CSC(C)(C)[C@H]1C(=O)NC(C)(C)C` [KNI-10057], for which the values for the Ki in assay [2] (setting [4]) and in assay [3] (setting [6]) were 5.29 ± 0.633 µM and 0.428 ± 0.021 µM, respectively.
